# Experimental data: ChEMBL document CHEMBL4340506, “Inhibition of a viral prolyl hydroxylase” (Bioorg Med Chem, 2019)
# Activity calls are given as the source filed them. No cut-off for these calls is given here. Where a SMILES comes first, the peptide text is derived from it. [ ]: non-standard residue; d: D form. Pro(cis-4-F) = O=C(O)[C@@H]1C[C@H](F)CN1; Hyp = O=C(O)[C@@H]1C[C@@H](O)CN1
# Target: T1, Prolyl 4-hydroxylase (Paramecium bursaria Chlorella virus 1) (UniProt Q84406)
# T1 sequence (whole entry): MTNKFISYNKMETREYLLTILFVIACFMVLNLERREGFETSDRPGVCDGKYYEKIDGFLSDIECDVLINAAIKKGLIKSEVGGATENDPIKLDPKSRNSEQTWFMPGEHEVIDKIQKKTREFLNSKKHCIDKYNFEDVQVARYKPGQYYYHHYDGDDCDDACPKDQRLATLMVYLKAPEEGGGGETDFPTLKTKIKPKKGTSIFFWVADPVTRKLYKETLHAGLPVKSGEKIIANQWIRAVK
# Test: (§1) Substrate activity at N-terminal His6-tagged recombinant Paramecium bursaria chlorella virus 1 CPH expressed in Escherichia coli Rosetta 2 (DE3) cells assessed as succinate production at 500 uM incubated for 60 s in presence of 2OG and L-ascorbate and using Fe2 as cofactor by 1H NMR spectroscopy
row,SMILES,Activity
1,C[C@H](NC(=O)[C@@H]1CCCN1)C(=O)N1CCC[C@H]1C(=O)N[C@@H](CCCCN)C(=O)N1C[C@H](O)C[C@H]1C(=O)N[C@@H](C)C(=O)N1CCC[C@H]1C(=O)N[C@@H](CCCCN)C(=O)O (H-PAPK[Hyp]APK-OH),Active

# Target: T1, Prolyl 4-hydroxylase (Paramecium bursaria Chlorella virus 1)
# Test: as §1, with “2OG and in absence of L-ascorbate and” for “2OG and L-ascorbate and”
row,SMILES,Activity
1,C[C@H](NC(=O)[C@@H]1CCCN1)C(=O)N1CCC[C@H]1C(=O)N[C@@H](CCCCN)C(=O)N1C[C@H](O)C[C@H]1C(=O)N[C@@H](C)C(=O)N1CCC[C@H]1C(=O)N[C@@H](CCCCN)C(=O)O (H-PAPK[Hyp]APK-OH),Active

# Target: T1, Prolyl 4-hydroxylase (Paramecium bursaria Chlorella virus 1)
# Test: Substrate activity at N-terminal His6-tagged recombinant Paramecium bursaria chlorella virus 1 CPH expressed in Escherichia coli Rosetta 2 (DE3) cells assessed as substrate hydroxylation at 100 uM incubated for 16 hrs in presence of 2OG by MALDI TOF MS analysis
row,SMILES,Activity
1,C[C@H](NC(=O)[C@H](CCCCN)NC(=O)[C@@H]1C[C@@H](O)CN1C(=O)[C@H](C)NC(=O)[C@@H]1CCCN1)C(=O)N[C@@H](C)C(=O)N1CCC[C@H]1C(=O)N[C@@H](CCCCN)C(=O)O (H-PA[Hyp]KAAPK-OH),inactive
2,C[C@H](NC(=O)[C@H](CS)NC(=O)[C@H](CCCCN)NC(=O)[C@@H]1C[C@@H](O)CN1C(=O)[C@H](C)NC(=O)[C@@H]1CCCN1)C(=O)N1CCC[C@H]1C(=O)N[C@@H](CCCCN)C(=O)O (H-PA[Hyp]KCAPK-OH),inactive
3,C[C@H](NC(=O)[C@H](CC(=O)O)NC(=O)[C@H](CCCCN)NC(=O)[C@@H]1C[C@@H](O)CN1C(=O)[C@H](C)NC(=O)[C@@H]1CCCN1)C(=O)N1CCC[C@H]1C(=O)N[C@@H](CCCCN)C(=O)O (H-PA[Hyp]KDAPK-OH),inactive
4,C[C@H](NC(=O)[C@H](CCC(=O)O)NC(=O)[C@H](CCCCN)NC(=O)[C@@H]1C[C@@H](O)CN1C(=O)[C@H](C)NC(=O)[C@@H]1CCCN1)C(=O)N1CCC[C@H]1C(=O)N[C@@H](CCCCN)C(=O)O (H-PA[Hyp]KEAPK-OH),inactive
5,C[C@H](NC(=O)[C@H](Cc1ccccc1)NC(=O)[C@H](CCCCN)NC(=O)[C@@H]1C[C@@H](O)CN1C(=O)[C@H](C)NC(=O)[C@@H]1CCCN1)C(=O)N1CCC[C@H]1C(=O)N[C@@H](CCCCN)C(=O)O (H-PA[Hyp]KFAPK-OH),inactive
6,C[C@H](NC(=O)CNC(=O)[C@H](CCCCN)NC(=O)[C@@H]1C[C@@H](O)CN1C(=O)[C@H](C)NC(=O)[C@@H]1CCCN1)C(=O)N1CCC[C@H]1C(=O)N[C@@H](CCCCN)C(=O)O (H-PA[Hyp]KGAPK-OH),inactive
7,C[C@H](NC(=O)[C@H](Cc1cnc[nH]1)NC(=O)[C@H](CCCCN)NC(=O)[C@@H]1C[C@@H](O)CN1C(=O)[C@H](C)NC(=O)[C@@H]1CCCN1)C(=O)N1CCC[C@H]1C(=O)N[C@@H](CCCCN)C(=O)O (H-PA[Hyp]KHAPK-OH),inactive
8,CC[C@H](C)[C@H](NC(=O)[C@H](CCCCN)NC(=O)[C@@H]1C[C@@H](O)CN1C(=O)[C@H](C)NC(=O)[C@@H]1CCCN1)C(=O)N[C@@H](C)C(=O)N1CCC[C@H]1C(=O)N[C@@H](CCCCN)C(=O)O (H-PA[Hyp]KIAPK-OH),inactive
9,C[C@H](NC(=O)[C@H](CCCCN)NC(=O)[C@H](CCCCN)NC(=O)[C@@H]1C[C@@H](O)CN1C(=O)[C@H](C)NC(=O)[C@@H]1CCCN1)C(=O)N1CCC[C@H]1C(=O)N[C@@H](CCCCN)C(=O)O (H-PA[Hyp]KKAPK-OH),inactive
10,CC(C)C[C@H](NC(=O)[C@H](CCCCN)NC(=O)[C@@H]1C[C@@H](O)CN1C(=O)[C@H](C)NC(=O)[C@@H]1CCCN1)C(=O)N[C@@H](C)C(=O)N1CCC[C@H]1C(=O)N[C@@H](CCCCN)C(=O)O (H-PA[Hyp]KLAPK-OH),inactive
11,CSCC[C@H](NC(=O)[C@H](CCCCN)NC(=O)[C@@H]1C[C@@H](O)CN1C(=O)[C@H](C)NC(=O)[C@@H]1CCCN1)C(=O)N[C@@H](C)C(=O)N1CCC[C@H]1C(=O)N[C@@H](CCCCN)C(=O)O (H-PA[Hyp]KMAPK-OH),inactive
12,C[C@H](NC(=O)[C@H](CC(N)=O)NC(=O)[C@H](CCCCN)NC(=O)[C@@H]1C[C@@H](O)CN1C(=O)[C@H](C)NC(=O)[C@@H]1CCCN1)C(=O)N1CCC[C@H]1C(=O)N[C@@H](CCCCN)C(=O)O (H-PA[Hyp]KNAPK-OH),inactive
13,C[C@H](NC(=O)[C@H](CCC(N)=O)NC(=O)[C@H](CCCCN)NC(=O)[C@@H]1C[C@@H](O)CN1C(=O)[C@H](C)NC(=O)[C@@H]1CCCN1)C(=O)N1CCC[C@H]1C(=O)N[C@@H](CCCCN)C(=O)O (H-PA[Hyp]KQAPK-OH),inactive
14,C[C@H](NC(=O)[C@H](CCCNC(=N)N)NC(=O)[C@H](CCCCN)NC(=O)[C@@H]1C[C@@H](O)CN1C(=O)[C@H](C)NC(=O)[C@@H]1CCCN1)C(=O)N1CCC[C@H]1C(=O)N[C@@H](CCCCN)C(=O)O (H-PA[Hyp]KRAPK-OH),inactive
15,C[C@H](NC(=O)[C@H](CO)NC(=O)[C@H](CCCCN)NC(=O)[C@@H]1C[C@@H](O)CN1C(=O)[C@H](C)NC(=O)[C@@H]1CCCN1)C(=O)N1CCC[C@H]1C(=O)N[C@@H](CCCCN)C(=O)O (H-PA[Hyp]KSAPK-OH),inactive
16,C[C@H](NC(=O)[C@@H]1CCCN1)C(=O)N1C[C@H](O)C[C@H]1C(=O)N[C@@H](CCCCN)C(=O)N[C@H](C(=O)N[C@@H](C)C(=O)N1CCC[C@H]1C(=O)N[C@@H](CCCCN)C(=O)O)[C@@H](C)O (H-PA[Hyp]KTAPK-OH),inactive
17,CC(C)[C@H](NC(=O)[C@H](CCCCN)NC(=O)[C@@H]1C[C@@H](O)CN1C(=O)[C@H](C)NC(=O)[C@@H]1CCCN1)C(=O)N[C@@H](C)C(=O)N1CCC[C@H]1C(=O)N[C@@H](CCCCN)C(=O)O (H-PA[Hyp]KVAPK-OH),inactive
18,C[C@H](NC(=O)[C@H](Cc1c[nH]c2ccccc12)NC(=O)[C@H](CCCCN)NC(=O)[C@@H]1C[C@@H](O)CN1C(=O)[C@H](C)NC(=O)[C@@H]1CCCN1)C(=O)N1CCC[C@H]1C(=O)N[C@@H](CCCCN)C(=O)O (H-PA[Hyp]KWAPK-OH),inactive
19,C[C@H](NC(=O)[C@H](Cc1ccc(O)cc1)NC(=O)[C@H](CCCCN)NC(=O)[C@@H]1C[C@@H](O)CN1C(=O)[C@H](C)NC(=O)[C@@H]1CCCN1)C(=O)N1CCC[C@H]1C(=O)N[C@@H](CCCCN)C(=O)O (H-PA[Hyp]KYAPK-OH),inactive
20,C[C@H](NC(=O)[C@@H]1CCCN1)C(=O)N1C[C@H](O)C[C@H]1C(=O)N[C@@H](CCCCN)C(=O)N1C[C@@H](F)C[C@H]1C(=O)N[C@@H](C)C(=O)N1CCC[C@H]1C(=O)N[C@@H](CCCCN)C(=O)O (H-PA[Hyp]K[Pro(cis-4-F)]APK-OH),Active

# Target: T2, Prolyl 4-hydroxylase (Paramecium bursaria Chlorella virus 1, UniProt Q84406)
# T2 sequence (Q84406 whole entry): T1 sequence (whole entry)
# Test: Inhibition of N-terminal His6-tagged recombinant Paramecium bursaria chlorella virus 1 CPH expressed in Escherichia coli Rosetta 2 (DE3) cells pre-incubated for 5 mins before 2OG as substrate and Fe2 as co-factor addition in presence of L-ascorbate and measured after 5 mins MALDI TOF MS analysis
SMILES,IC50 [µM],Ki [µM]
O=C(O)c1ccc(O)c2ncccc12,47.2,–
O=C(O)C[C@H](O)C(=O)O,> 1000,–
O=C(O)CC[C@@H](O)C(=O)O,> 500,–
O=C(O)CC[C@H](O)C(=O)O,> 500,–
CN(C)NC(=O)CCC(=O)O,> 100,–
O=C(O)c1ccnc(C(=O)O)c1,5.3,3.28
O=C(O)CCNc1cc(N2CCc3ccccc3CC2)nc(-c2ccccn2)n1,15.9,–
O=C(O)/C=C(/CC(=O)O)C(=O)O,> 1000,–
CC(C)(C)OC(=O)c1ccc(-n2[nH]cc(-n3ccnn3)c2=O)nc1,2.5,–
O=C(O)CNC(=O)c1ncc(-c2cccc(Cl)c2)cc1O,< 1,0.28
Cc1ccsc1C(NC(=O)c1ccccc1)c1cc(Cl)c2cccnc2c1O (stereo unspecified),> 100,–
CCCCCCCCOC(=O)c1ccc(O)c2ncccc12,> 100,–
O=C(O)CNC(=O)c1c(O)n(C2CCCCC2)c(=O)n(C2CCCCC2)c1=O,13.4,7.65
O=C(O)CNC(=O)c1nc(Cl)c2ccccc2c1O,4.5,0.71
O=C(O)c1c[nH]c2c(ccc3cccnc32)c1=O,15.7,–
O=C(O)CC(O)(CC(=O)O)C(=O)O [CITRIC ACID],213,–
O=C(O)/C=C/C(=O)O [FUMARIC ACID],> 1000,–
N[C@@H](CCC(=O)O)C(=O)O [GLUTAMIC ACID],> 1000,–
O=C(O)C[C@H](C(=O)O)[C@@H](O)C(=O)O [ISOCITRIC ACID],284,–
O=c1c(-n2ccnn2)c[nH]n1-c1cc(N2CCOCC2)ncn1 [MOLIDUSTAT],26.8,16.1
O=C(O)CNC(=O)C(=O)O [N-OXALYLGLYCINE],21.2,48.7
O=C(O)CC(=O)C(=O)O [OXALOACETATE],> 1000,–
CC(=O)C(=O)O [PYRUVATE],> 1000,–
O=C(O)CCC(=O)O [SUCCINIC ACID],> 1000,–

# Target: Hypoxia-inducible factor 1-alpha inhibitor (Homo sapiens, UniProt Q9NWT6)
# Sequence (Q9NWT6 whole entry): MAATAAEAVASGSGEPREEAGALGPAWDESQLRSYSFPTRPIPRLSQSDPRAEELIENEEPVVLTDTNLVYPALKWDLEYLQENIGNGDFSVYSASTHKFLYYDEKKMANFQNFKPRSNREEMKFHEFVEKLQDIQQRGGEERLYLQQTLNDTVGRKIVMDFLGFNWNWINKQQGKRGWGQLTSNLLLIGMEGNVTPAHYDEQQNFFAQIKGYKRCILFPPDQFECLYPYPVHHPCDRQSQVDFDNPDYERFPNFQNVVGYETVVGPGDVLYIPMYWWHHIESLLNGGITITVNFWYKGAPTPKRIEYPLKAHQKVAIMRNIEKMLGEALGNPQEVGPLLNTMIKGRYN
# Test: Inhibition of recombinant human FIH using 2OG as substrate and Fe2 as co-factor assessed as hydroxylation incubated for 15 mins in presence of L-ascorbate by LC-MS analysis
row,SMILES,IC50 [µM]
1,O=c1c(-n2ccnn2)c[nH]n1-c1cc(N2CCOCC2)ncn1 [MOLIDUSTAT],31

# Target: T3, Prolyl 3-hydroxylase OGFOD1 (Homo sapiens, UniProt Q8N543)
# T3 sequence (Q8N543 whole entry): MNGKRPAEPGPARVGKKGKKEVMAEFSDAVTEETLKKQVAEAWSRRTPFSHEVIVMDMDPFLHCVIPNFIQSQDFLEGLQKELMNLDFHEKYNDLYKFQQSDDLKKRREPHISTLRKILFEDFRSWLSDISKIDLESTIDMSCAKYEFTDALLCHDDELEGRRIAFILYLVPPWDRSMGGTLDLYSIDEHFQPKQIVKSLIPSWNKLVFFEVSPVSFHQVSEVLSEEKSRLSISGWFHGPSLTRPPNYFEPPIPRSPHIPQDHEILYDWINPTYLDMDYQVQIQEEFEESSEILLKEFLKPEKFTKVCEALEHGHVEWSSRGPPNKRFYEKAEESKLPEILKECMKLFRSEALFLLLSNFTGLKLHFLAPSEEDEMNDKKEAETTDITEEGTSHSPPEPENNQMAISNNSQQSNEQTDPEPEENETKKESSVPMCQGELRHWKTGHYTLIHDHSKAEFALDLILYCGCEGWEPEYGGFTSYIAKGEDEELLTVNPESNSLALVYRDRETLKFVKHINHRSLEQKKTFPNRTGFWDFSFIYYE
# Test: Inhibition of recombinant human OGFOD1 using 2OG as substrate and Fe2 as co-factor assessed as hydroxylation incubated for 15 mins in presence of L-ascorbate by MALDI-TOF MS analysis
row,SMILES,IC50 [µM]
1,CC(C)(C)OC(=O)c1ccc(-n2[nH]cc(-n3ccnn3)c2=O)nc1,5.1
2,O=C(O)CNC(=O)c1c(O)n(C2CCCCC2)c(=O)n(C2CCCCC2)c1=O,2.1
3,O=c1c(-n2ccnn2)c[nH]n1-c1cc(N2CCOCC2)ncn1 [MOLIDUSTAT],< 1
